Here are results for nine compounds from ChEMBL document CHEMBL5465560, “Selectivity Literature for EUbOPEN Chemogenomic Library” (2024).

Test [1] concerns the target Calcium/calmodulin-dependent protein kinase type II subunit alpha (Homo sapiens, UniProt Q9UQM7). As to conditions: at 10 µM.
For test [2], the system named is Epidermal growth factor receptor (Homo sapiens), P00533 [UNDEFINED MUTATION]. The test can be described thus: Selectivity interaction (KinomeScan (DiscoverX)) EUB0001079a EGFR. As to conditions: at 1 µM.
Chain of Epidermal growth factor receptor (Homo sapiens), P00533 [UNDEFINED MUTATION] (P00533 whole entry, looked up, change not shown): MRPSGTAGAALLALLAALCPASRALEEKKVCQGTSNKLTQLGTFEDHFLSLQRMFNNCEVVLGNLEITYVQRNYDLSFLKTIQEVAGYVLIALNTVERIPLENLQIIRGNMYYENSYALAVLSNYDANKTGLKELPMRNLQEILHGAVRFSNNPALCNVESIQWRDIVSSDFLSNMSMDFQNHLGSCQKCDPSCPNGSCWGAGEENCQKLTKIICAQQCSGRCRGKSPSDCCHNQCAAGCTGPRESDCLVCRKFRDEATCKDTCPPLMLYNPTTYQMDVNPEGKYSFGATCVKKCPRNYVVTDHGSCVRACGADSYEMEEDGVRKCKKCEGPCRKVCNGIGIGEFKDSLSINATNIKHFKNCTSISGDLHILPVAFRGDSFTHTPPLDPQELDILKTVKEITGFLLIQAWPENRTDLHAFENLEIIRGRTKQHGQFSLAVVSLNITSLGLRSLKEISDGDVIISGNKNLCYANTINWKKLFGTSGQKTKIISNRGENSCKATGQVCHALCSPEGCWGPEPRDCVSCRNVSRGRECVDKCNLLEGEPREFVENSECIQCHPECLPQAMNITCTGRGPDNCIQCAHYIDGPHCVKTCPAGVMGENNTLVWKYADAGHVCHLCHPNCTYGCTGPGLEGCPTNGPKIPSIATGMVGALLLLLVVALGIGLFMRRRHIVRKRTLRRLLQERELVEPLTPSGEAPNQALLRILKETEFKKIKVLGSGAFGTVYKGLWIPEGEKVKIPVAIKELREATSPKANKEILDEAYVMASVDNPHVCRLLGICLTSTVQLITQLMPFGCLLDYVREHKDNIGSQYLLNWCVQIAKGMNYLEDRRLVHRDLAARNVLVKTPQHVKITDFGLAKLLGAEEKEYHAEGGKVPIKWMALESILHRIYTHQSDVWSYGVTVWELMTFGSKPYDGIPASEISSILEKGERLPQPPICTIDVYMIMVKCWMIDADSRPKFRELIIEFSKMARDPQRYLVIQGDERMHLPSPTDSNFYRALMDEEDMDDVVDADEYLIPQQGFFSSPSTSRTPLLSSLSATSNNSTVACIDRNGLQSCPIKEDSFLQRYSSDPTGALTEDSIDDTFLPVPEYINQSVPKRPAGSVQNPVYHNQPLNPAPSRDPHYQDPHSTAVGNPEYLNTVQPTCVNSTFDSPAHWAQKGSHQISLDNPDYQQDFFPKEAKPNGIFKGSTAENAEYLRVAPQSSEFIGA
Test [3] concerns the target Rho-associated protein kinase 2 (Homo sapiens, UniProt O75116). Briefly: Selectivity interaction (KinomeScan (DiscoverX)) EUB0000695a ROCK2. As to conditions: at 100 nM.
The target of test [4] is T1, MAP kinase-activated protein kinase 5 (Homo sapiens) (UniProt Q8IW41).
T1 sequence (whole entry): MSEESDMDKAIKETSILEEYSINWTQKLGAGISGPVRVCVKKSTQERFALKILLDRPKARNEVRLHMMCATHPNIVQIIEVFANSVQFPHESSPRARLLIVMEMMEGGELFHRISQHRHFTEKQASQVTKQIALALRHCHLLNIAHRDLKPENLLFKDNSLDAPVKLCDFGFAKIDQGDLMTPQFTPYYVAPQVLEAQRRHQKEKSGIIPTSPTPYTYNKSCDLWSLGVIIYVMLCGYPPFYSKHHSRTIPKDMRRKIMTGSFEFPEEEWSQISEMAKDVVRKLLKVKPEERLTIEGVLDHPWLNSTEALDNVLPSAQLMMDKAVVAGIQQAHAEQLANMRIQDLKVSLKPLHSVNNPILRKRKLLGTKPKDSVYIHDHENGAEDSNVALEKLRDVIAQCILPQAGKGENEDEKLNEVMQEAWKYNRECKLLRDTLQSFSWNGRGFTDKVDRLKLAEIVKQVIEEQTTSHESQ
Briefly: Selectivity interaction (KinomeScan (DiscoverX)) EUB0000666a MAPKAPK5. Conditions: at 10 µM.

The target in test [5] is Casein kinase II subunit alpha (Homo sapiens, UniProt P68400). The test can be described thus: Selectivity interaction (Kinase panel (Z-LYTE Assay)) EUB0001632a CSNK2A1. As to conditions: at 10 µM.
Test [6] has as its target Calcium/calmodulin-dependent protein kinase type 1 (Homo sapiens) (UniProt Q14012). Briefly: Selectivity interaction (ActivX KiNativ screen (kinase selectivity in THP-1 cell lysates)) EUB0000639a CAMK1. Format: subcellular. Conditions: lysate, at 0.04 µM.
Test [7] concerns the target T2, Serine/threonine-protein kinase ULK3 (Homo sapiens) (UniProt Q6PHR2).
T2 sequence (whole entry): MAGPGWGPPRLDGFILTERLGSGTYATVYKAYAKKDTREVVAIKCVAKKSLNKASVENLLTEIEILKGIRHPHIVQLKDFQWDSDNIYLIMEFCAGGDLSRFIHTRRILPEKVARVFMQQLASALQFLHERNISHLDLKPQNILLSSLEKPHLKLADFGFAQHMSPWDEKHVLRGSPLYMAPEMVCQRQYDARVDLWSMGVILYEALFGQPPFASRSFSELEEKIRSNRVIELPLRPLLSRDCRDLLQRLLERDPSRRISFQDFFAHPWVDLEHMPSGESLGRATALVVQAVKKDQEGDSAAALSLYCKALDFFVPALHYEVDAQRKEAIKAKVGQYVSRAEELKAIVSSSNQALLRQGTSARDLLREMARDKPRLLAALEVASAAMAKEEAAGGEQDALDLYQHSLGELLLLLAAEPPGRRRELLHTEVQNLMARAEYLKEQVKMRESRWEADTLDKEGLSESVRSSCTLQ
Briefly: Selectivity interaction (ActivX KiNativ screen (kinase selectivity in THP-1 cell lysates)) EUB0000639a ULK3. Conditions: lysate, at 1 µM. Format: subcellular.

Test [8] addresses T3, Serine/threonine-protein kinase D2 (Homo sapiens) (UniProt Q9BZL6).
T3 sequence (whole entry): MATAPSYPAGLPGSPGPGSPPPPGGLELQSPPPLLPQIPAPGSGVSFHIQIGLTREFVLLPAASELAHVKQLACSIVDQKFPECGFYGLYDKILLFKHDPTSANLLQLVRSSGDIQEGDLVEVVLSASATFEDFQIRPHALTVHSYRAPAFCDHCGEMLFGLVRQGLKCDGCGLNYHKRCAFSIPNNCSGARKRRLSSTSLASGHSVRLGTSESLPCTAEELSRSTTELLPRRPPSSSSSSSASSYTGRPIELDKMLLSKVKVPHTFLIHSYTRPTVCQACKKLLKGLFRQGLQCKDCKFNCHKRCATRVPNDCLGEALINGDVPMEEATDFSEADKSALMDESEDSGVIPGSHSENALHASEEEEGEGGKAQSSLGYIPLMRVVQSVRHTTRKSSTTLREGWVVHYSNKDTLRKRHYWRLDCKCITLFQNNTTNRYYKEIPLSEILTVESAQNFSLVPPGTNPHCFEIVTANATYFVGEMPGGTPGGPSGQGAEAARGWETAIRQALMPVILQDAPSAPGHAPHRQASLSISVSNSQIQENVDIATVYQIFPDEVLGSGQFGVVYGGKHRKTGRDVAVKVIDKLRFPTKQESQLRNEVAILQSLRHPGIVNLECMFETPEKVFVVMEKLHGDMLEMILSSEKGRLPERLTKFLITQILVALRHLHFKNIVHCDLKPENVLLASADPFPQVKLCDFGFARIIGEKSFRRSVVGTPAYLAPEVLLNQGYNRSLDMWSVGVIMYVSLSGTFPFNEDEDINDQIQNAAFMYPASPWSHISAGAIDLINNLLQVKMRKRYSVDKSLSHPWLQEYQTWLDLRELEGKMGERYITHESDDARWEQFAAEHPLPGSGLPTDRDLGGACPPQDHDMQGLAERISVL
The test can be described thus: Selectivity interaction (KinomeScan (DiscoverX)) EUB0000229b PRKD2. As to conditions: at 10 µM.

Test [9] concerns the target T4, Uncharacterized serine/threonine-protein kinase SBK3 (Homo sapiens) (UniProt P0C264).
T4 sequence (whole entry): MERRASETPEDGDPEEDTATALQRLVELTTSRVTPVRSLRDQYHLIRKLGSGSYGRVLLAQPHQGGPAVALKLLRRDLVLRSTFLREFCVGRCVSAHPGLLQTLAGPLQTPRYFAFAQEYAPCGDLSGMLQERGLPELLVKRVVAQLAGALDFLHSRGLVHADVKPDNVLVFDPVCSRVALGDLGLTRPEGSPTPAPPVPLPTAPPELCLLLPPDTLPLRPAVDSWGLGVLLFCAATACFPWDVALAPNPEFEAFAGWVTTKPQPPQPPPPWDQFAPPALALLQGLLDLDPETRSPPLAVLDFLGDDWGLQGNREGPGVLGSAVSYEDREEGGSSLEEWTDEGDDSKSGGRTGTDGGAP
Briefly: Selectivity interaction (KinomeScan (DiscoverX)) EUB0000595a SBK3. As to conditions: at 10 µM.

The target of test [10] is Fibroblast growth factor receptor 4 (Homo sapiens, UniProt P22455). Conditions: at 10 µM.
Chain of Fibroblast growth factor receptor 4 (P22455 22-802 limits assumed): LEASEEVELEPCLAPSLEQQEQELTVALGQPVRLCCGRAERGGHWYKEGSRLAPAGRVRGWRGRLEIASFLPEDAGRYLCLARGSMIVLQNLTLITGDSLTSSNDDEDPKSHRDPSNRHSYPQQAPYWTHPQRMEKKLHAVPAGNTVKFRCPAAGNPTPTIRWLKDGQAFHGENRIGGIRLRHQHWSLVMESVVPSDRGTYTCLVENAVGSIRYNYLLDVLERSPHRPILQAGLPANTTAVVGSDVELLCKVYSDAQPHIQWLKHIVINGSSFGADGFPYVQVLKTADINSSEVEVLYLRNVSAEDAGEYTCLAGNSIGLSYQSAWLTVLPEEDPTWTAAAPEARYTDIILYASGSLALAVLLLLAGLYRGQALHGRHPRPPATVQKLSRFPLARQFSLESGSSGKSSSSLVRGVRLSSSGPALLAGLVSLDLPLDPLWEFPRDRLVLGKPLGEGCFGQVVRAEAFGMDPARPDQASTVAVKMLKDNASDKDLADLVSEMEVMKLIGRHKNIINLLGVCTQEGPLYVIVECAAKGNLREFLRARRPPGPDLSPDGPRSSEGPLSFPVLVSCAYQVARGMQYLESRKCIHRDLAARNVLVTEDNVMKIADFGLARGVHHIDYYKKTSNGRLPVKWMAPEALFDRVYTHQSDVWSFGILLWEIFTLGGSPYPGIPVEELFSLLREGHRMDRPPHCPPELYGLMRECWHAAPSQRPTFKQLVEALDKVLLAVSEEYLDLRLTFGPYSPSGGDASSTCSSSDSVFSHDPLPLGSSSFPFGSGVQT
Another test deals with SRSF protein kinase 1 (Homo sapiens, UniProt Q96SB4). Briefly: Selectivity interaction (Kinase panel (KiNativ target engagement assay in Jurkat cells)) EUB0001635a SRPK1. Type of test: cell-based. As to conditions: Selectivity number of off-targets 0.0, Selectivity number of targets 233.0, Source Knowledge https://www.sciencedirect.com/science/article/pii/S2451945619300674?via%3Dihub, at 1 µM.
Chain of SRSF protein kinase 1 (Q96SB4 whole entry): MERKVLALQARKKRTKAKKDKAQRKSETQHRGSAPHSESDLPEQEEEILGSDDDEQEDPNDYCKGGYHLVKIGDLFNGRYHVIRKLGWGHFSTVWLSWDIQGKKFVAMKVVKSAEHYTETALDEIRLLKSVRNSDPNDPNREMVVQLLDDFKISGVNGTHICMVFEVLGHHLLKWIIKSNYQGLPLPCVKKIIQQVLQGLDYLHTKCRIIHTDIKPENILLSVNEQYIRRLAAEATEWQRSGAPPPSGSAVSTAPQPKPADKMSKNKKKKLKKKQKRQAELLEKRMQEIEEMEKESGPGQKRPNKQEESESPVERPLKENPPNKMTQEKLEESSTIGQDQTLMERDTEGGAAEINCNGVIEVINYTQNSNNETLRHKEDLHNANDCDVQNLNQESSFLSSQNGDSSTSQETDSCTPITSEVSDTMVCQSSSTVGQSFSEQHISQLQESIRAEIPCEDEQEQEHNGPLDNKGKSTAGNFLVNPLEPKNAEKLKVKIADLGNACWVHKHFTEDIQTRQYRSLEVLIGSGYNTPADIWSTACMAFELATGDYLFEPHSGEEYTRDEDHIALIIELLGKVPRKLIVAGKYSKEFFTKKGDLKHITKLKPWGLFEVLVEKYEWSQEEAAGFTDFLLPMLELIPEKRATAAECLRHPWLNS

The structures appear in SMILES notation.

Chain of Calcium/calmodulin-dependent protein kinase type II subunit alpha (Q9UQM7 whole entry): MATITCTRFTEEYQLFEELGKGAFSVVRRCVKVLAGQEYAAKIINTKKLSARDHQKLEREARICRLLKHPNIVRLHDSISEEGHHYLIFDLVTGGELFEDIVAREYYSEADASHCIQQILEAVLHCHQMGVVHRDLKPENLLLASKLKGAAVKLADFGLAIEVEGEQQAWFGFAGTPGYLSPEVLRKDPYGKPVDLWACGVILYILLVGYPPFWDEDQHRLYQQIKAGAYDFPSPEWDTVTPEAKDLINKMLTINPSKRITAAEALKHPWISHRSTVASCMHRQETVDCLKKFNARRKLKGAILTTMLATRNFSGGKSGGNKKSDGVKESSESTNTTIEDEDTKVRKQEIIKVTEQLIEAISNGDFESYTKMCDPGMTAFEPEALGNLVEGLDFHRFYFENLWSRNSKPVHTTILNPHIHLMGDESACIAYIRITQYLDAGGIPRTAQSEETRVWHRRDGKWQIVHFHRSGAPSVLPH
Chain of Calcium/calmodulin-dependent protein kinase type 1 (Homo sapiens) (Q14012 whole entry, looked up): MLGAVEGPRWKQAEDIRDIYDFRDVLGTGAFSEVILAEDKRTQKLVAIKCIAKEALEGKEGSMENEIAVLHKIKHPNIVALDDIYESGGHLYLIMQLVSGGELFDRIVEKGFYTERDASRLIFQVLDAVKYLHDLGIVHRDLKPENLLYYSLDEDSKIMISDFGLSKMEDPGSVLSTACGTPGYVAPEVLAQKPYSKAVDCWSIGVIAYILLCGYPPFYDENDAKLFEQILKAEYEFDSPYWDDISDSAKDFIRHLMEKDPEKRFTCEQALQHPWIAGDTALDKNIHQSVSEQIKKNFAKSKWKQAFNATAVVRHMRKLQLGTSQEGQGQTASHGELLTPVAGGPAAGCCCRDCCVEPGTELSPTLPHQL
Chain of Rho-associated protein kinase 2 (O75116 whole entry, looked up): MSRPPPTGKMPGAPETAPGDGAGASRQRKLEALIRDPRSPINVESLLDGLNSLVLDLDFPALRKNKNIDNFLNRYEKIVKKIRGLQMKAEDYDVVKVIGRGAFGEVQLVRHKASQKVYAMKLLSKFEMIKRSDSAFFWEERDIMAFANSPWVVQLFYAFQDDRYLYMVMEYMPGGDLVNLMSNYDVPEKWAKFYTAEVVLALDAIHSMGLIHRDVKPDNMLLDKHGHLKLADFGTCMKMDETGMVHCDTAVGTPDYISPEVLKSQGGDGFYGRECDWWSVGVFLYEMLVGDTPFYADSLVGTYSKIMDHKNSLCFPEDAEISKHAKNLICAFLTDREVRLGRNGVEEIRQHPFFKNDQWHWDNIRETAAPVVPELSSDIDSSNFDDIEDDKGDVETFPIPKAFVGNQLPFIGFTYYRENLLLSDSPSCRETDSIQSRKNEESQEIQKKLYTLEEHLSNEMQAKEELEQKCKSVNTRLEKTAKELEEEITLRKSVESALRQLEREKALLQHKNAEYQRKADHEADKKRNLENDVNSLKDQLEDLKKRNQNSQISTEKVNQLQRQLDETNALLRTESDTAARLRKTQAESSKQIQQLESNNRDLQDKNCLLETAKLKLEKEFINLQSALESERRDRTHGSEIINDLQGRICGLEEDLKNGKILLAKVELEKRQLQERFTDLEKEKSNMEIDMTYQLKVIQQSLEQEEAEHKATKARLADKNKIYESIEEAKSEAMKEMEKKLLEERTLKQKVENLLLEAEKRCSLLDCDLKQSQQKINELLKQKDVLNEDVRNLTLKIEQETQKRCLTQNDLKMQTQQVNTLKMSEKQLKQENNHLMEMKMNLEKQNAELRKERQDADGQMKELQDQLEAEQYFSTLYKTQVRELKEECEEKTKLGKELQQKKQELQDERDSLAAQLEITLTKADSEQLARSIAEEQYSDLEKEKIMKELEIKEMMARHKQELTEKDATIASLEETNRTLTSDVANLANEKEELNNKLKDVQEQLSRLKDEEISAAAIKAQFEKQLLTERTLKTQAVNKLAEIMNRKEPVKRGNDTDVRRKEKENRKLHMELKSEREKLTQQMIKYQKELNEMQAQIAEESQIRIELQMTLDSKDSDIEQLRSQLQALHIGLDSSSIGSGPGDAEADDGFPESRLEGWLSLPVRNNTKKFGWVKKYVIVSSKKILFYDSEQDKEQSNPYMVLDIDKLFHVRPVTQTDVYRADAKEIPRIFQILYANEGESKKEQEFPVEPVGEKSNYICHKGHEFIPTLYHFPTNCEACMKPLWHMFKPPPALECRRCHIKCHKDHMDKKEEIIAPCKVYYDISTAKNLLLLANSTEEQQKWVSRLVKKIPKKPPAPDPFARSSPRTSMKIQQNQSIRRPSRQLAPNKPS

Take `CCN(CC)CCCCNc1ncc2cc(-c3cc(OC)cc(OC)c3)c(NC(=O)NC(C)(C)C)nc2n1`: the % of control in test [1] came to 100%.
As to `Nc1cnc(N2CCc3cc(S(=O)(=O)Nc4c(F)cc(Cl)cc4F)cc(N4CCCC4=O)c32)nc1` [TP-020n], the % of control in [2] is 63%.
Take `Cc1cc(F)c(C(=O)Nc2cccc(-c3nncn3C(C)C)n2)cc1-n1cnc(C2CC2)c1`: the % of control in test [3] was 81%.
Turning to `O=C(NOC[C@H](O)CO)c1ccc(F)c(F)c1Nc1ccc(I)cc1F`, in [4], the % of control came to 100%.
Turning to `Cn1cc(-n2cnc3c(NCc4nc5cc(Cl)c(Cl)cc5[nH]4)nc(N4CCOCC4)nc32)cn1`, the % of control in test [5] is -3.76%.
For the compound `CC[C@@H]1[C@H](F)C(=O)N[C@@H]1COc1nccc2cc(C(N)=O)c(OC)cc12` [ZIMLOVISERTIB], the % of inhibition in test [6] was -6.2%; in test [7] it was -4.6%.
`COc1cc(N(C)c2ccnc3ccc(C(F)(F)F)cc23)cc(OC)c1OC` came in with a % binding in test [8] of 90%.
`COCC(=O)NC/C=C/c1ccc2ncnc(Nc3ccc(Oc4ccc(C)nc4)c(C)c3)c2c1` [CP-724714]: the % of control in [9] and in test [10] was 100% each time.
On SRSF protein kinase 1, `C=CC(=O)Nc1ccc(C(=O)Nc2[nH]nc3c2CN(C(=O)N[C@H](CN(C)C)c2ccccc2)C3(C)C)cc1` returned a % of engagement of 6%.
